One assay concerns SD rat. Nature of the assay: 32P-phosphate oral loading test using SD rat (phosphorus absorption inhibitory effect). The assay is classed as in vivo. As to conditions: SD male rats, plasma radioactivity 30 minutes after 32P-phosphate solution, vs control group; for inhibition in vivo at 3 mg/kg: Rattus norvegicus, 0.5 h, oral dose 3 mg/kg, read-out: Rate of inhibition of phosphate absorption. Here is the method: Phosphorus Absorption Inhibitory Effect of the Compound of the Present Invention in ^32P-Phosphate Oral Loading Test Using SD Rat
8-week-old SD male rats (Japan SLC, Inc.) were used as laboratory animals. Each test compound was suspended or dissolved at a concentration of 0.2 mg/mL or 0.6 mg/mL in Japanese Pharmacopoeia water for injection (manufactured by Hikari Pharmaceutical Co., Ltd.) and orally administered to each rat at a dose of 5 ml/kg body weight. Japanese Pharmacopoeia water for injection was administered at the same dose as above to a control group. 5 minutes after the administration of the test compound or water for injection, a phosphate solution (1.3 mM NaH2PO4) containing 32P-phosphate (PerkinElmer Inc.) was administered thereto at a dose of 5 ml/kg. 30 minutes after the administration of the phosphate solution, blood was collected from the tail vein, and the blood sample was immediately mixed with EDTA-2K (manufactured by Dojindo Laboratories). Then, the mixture was centrifuged at 3000 rpm at 4° C. for 10 minutes to recover plasma.
The radioactivity in 100 μL of the plasma was measured using a liquid scintillation counter and used as a phosphate absorption count. The radioactivity in the plasma of the control group was used as a control, and the rate of inhibition of phosphate absorption was determined according to the following expression: Rate of inhibition of phosphate absorption (%)=(1−Phosphate absorption count of the test compound administration group/Phosphate absorption count of the control group)×100 (2) Results

The target in a further assay is T1, human NHE3 (Homo sapiens, UniProt P48764).
T1 sequence (P48764 26-834): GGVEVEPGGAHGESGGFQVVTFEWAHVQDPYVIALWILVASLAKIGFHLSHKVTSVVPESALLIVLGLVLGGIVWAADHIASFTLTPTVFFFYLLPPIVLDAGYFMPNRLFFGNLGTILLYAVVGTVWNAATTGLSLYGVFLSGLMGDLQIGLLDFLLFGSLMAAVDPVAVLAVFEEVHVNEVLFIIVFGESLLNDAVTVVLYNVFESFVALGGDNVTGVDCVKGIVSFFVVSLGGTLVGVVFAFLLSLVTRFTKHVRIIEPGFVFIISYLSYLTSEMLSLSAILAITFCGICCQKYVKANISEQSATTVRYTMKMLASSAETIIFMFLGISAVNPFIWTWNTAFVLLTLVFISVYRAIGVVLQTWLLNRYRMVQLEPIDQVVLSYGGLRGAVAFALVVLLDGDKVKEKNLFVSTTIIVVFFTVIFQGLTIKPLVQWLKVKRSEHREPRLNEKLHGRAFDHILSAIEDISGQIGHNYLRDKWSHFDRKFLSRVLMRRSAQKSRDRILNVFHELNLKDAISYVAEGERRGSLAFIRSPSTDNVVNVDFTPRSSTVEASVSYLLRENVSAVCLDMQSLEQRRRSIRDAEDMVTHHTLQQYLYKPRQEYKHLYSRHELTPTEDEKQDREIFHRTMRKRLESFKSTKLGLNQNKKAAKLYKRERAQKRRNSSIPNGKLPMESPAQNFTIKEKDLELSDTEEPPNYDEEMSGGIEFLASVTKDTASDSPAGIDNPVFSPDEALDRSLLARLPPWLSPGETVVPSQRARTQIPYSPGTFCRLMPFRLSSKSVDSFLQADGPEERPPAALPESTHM
Kind of assay: NHE3 inhibition test (recovery of intracellular pH in cell line stably expressing human NHE3). The class given is cell-based. The note with it: OK cells deficient in endogenous NHE stably expressing human NHE3; BCECF fluorescence, initial rate of pH recovery; read-out: human NHE3 inhibitory activity IC50. The procedure, abridged:
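IC50 is the concentration halving the initial rate of Na-triggered intracellular pH recovery, tracked by BCECF fluorescence, in NH4Cl-acidified cells. Cells: NHE-deficient OK line stably transfected with human NHE3; compound added in Na-free pH 7.4 buffer.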

Structures can show the parent of a compound that is named as a salt.

As to `CN1Cc2c(Cl)cc(Cl)cc2[C@H](c2cccc(-c3cc(NCCOCCOCCNC(=O)NCCCCNC(=O)NCCOCCOCCNc4cnnc(-c5cccc([C@@H]6CN(C)Cc7c(Cl)cc(Cl)cc76)c5)c4)cnn3)c2)C1` [Example 7-6, 1,1′-Butane-1,4-diylbis {3-[2-(2-{2-[(6-{3-[(4S)-6,8-dichloro-2-methyl-1,2,3,4-tetrahydroisoquinolin-4-yl]phenyl}pyridazin-4-yl)amino]ethoxy}ethoxy)ethyl]urea}pentahydrochloride], in the assay with SD rat, the inhibition in vivo at 3 mg/kg was 24%. At human NHE3, the IC50 (in general, the concentration needed to halve the response being measured) stood at 10 nM.

On to `CN1Cc2c(Cl)cc(Cl)cc2[C@H](c2cccc(-c3nnn(CCOCCOCCNC(=O)NCCCCNC(=O)NCCOCCOCCn4nnc(-c5cccc([C@@H]6CN(C)Cc7c(Cl)cc(Cl)cc76)c5)n4)n3)c2)C1` [Example 7-9, 1,1′-Butane-1,4-diylbis[3-(2-{2-[2-(5-{3-[(4S)-6,8-dichloro-2-methyl-1,2,3,4-tetrahydroisoquinolin-4-yl]phenyl}-2H-tetrazol-2-yl)ethoxy]ethoxy}ethyl)urea]hydrochloride], for which the inhibition in vivo at 3 mg/kg in the assay with SD rat came out at 22%. Also, the IC50 on human NHE3 amounted to 7.3 nM.

For `CN1Cc2c(Cl)cc(Cl)cc2[C@H](c2cccc(-c3nnn(CCOCCOCCNC(=O)Nc4ccc(NC(=O)NCCOCCOCCn5nnc(-c6cccc([C@@H]7CN(C)Cc8c(Cl)cc(Cl)cc87)c6)n5)cc4)n3)c2)C1` [Example 7-10, 1,1′-Benzene-1,4-diylbis[3-(2-{2-[2-(5-{3-[(4S)-6,8-dichloro-2-methyl-1,2,3,4-tetrahydroisoquinolin-4-yl]phenyl}-2H-tetrazol-2-yl)ethoxy]ethoxy}ethyl)urea]hydrochloride], the inhibition in vivo at 3 mg/kg with SD rat was 35%. Moreover, the half-inhibitory concentration (IC50) at human NHE3 came out at 13.7 nM.

As to `CN1Cc2c(Cl)cc(Cl)cc2[C@H](c2cccc(-c3cn(CCOCCOCCNC(=O)NCCCCNC(=O)NCCOCCOCCn4cnc(-c5cccc([C@@H]6CN(C)Cc7c(Cl)cc(Cl)cc76)c5)c4)cn3)c2)C1` [Example 7-15, 1,1′-Butane-1,4-diylbis[3-(2-{2-[2-(4-{3-[(4S)-6,8-dichloro-2-methyl-1,2,3,4-tetrahydroisoquinolin-4-yl]phenyl}-1H-imidazol-1-yl)ethoxy]ethoxy}ethyl)urea]hydrochloride], the inhibition in vivo at 3 mg/kg in the assay with SD rat came to 36%. On human NHE3, the IC50 came to 8.1 nM.

As to `CN1Cc2c(Cl)cc(Cl)cc2[C@H](c2cccc(-c3cc(NCCOCCOCCOCCNC(=O)Nc4ccc(NC(=O)NCCOCCOCCOCCNc5cc(-c6cccc([C@@H]7CN(C)Cc8c(Cl)cc(Cl)cc87)c6)ncn5)cc4)ncn3)c2)C1` [Example 7-16, 1,1′-Benzene-1,4-diylbis(3-{2-[2-(2-{2-[(6-{3-[(4S)-6,8-dichloro-2-methyl-1,2,3,4-tetrahydroisoquinolin-4-yl]phenyl}pyrimidin-4-yl)amino]ethoxy}ethoxy)ethoxy]ethyl}urea) hydrochloride], the inhibition in vivo at 3 mg/kg in the assay with SD rat was 34%. Further, the IC50 on human NHE3 is 16.6 nM.

Turning to `CN1Cc2c(Cl)cc(Cl)cc2[C@H](c2cccc(-c3ccc(C(=O)NCCOCCOCCNC(=O)NCCCCNC(=O)NCCOCCOCCNC(=O)c4ccc(-c5cccc([C@@H]6CN(C)Cc7c(Cl)cc(Cl)cc76)c5)cn4)nc3)c2)C1` [Example 7-18, N,N′-(10,17-Dioxo-3,6,21,24-tetraoxa-9,11,16,18-tetraazahexacosane-1,26-diyl)bis(5-{3-[(4S)-6,8-dichloro-2-methyl-1,2,3,4-tetrahydroisoquinolin-4-yl]phenyl}pyridine-2-carboxamide) hydrochloride], the inhibition in vivo at 3 mg/kg in the assay with SD rat is 49%. Further, the IC50 at human NHE3 is 5.6 nM.

As to `CN1Cc2c(Cl)cc(Cl)cc2[C@H](c2cccc(-c3cc(NCCOCCOCCOCCNC(=O)NCCCCNC(=O)NCCOCCOCCOCCNc4cnnc(-c5cccc([C@@H]6CN(C)Cc7c(Cl)cc(Cl)cc76)c5)c4)cnn3)c2)C1` [Example 7-19, 1,1′-Butane-1,4-diylbis(3-{2-[2-(2-{2-[(6-{3-[(4S)-6,8-dichloro-2-methyl-1,2,3,4-tetrahydroisoquinolin-4-yl]phenyl}pyridazin-4-yl)amino]ethoxy}ethoxy)ethoxy]ethyl}urea) hexahydrochloride], the inhibition in vivo at 3 mg/kg with SD rat was found to be 19%. Moreover, the IC50 on human NHE3 is 17.7 nM.

Turning to `CN1Cc2c(Cl)cc(Cl)cc2[C@H](c2cccc(-c3cn(CCOCCOCCOCCNC(=O)Nc4ccc(NC(=O)NCCOCCOCCOCCn5cc(-c6cccc([C@@H]7CN(C)Cc8c(Cl)cc(Cl)cc87)c6)nn5)cc4)nn3)c2)C1` [Example 7-24, 1,1′-Benzene-1,4-diylbis{3-[2-(2-{2-[2-(4-{3-[(4S)-6,8-dichloro-2-methyl-1,2,3,4-tetrahydroisoquinolin-4-yl]phenyl}-1H-1,2,3-triazol-1-yl)ethoxy]ethoxy}ethoxy)ethyl]urea}hydrochloride], the inhibition in vivo at 3 mg/kg with SD rat is 31%. Besides, the IC50 at human NHE3 came to 5.6 nM.

On to `CN1Cc2c(Cl)cc(Cl)cc2[C@H](c2cccc(-c3nnn(CCOCCOCCOCCOCCNC(=O)NCCCCNC(=O)NCCOCCOCCOCCOCCn4nnc(-c5cccc([C@@H]6CN(C)Cc7c(Cl)cc(Cl)cc76)c5)n4)n3)c2)C1` [Example 7-29, 1,1′-Butane-1,4-diylbis {3-[14-(5-{3-[(4S)-6,8-dichloro-2-methyl-1,2,3,4-tetrahydroisoquinolin-4-yl]phenyl}-2H-tetrazol-2-yl)-3,6,9,12-tetraoxatetradec-1-yl]urea}hydrochloride], for which the inhibition in vivo at 3 mg/kg in the assay on SD rat is 10%. On human NHE3, the IC50 is 6.9 nM.

In the case of `CN1Cc2c(Cl)cc(Cl)cc2[C@H](c2cccc(-c3nnn(CCOCCOCCOCCNC(=O)NCCCCNC(=O)NCCOCCOCCOCCn4nnc(-c5cccc([C@@H]6CN(C)Cc7c(Cl)cc(Cl)cc76)c5)n4)n3)c2)C1` [Example 7-30, 1,1′-Butane-1,4-diylbis {3-[2-(2-{2-[2-(5-{3-[(4S)-6,8-dichloro-2-methyl-1,2,3,4-tetrahydroisoquinolin-4-yl]phenyl}-2H-tetrazol-2-yl)ethoxy]ethoxy}ethoxy)ethyl]urea}hydrochloride], the inhibition in vivo at 3 mg/kg with SD rat was determined as 28%. The IC50 at human NHE3 stood at 2.8 nM.

Take `CN1Cc2c(Cl)cc(Cl)cc2[C@H](c2cccc(-c3cncc(NCCOCCOCCOCCNC(=O)NCCCCNC(=O)NCCOCCOCCOCCNc4cncc(-c5cccc([C@@H]6CN(C)Cc7c(Cl)cc(Cl)cc76)c5)n4)n3)c2)C1` [Example 7-33, 1,1′-Butane-1,4-diylbis(3-{2-[2-(2-{2-[(6-{3-[(4S)-6,8-dichloro-2-methyl-1,2,3,4-tetrahydroisoquinolin-4-yl]phenyl}pyrazin-2-yl)amino]ethoxy}ethoxy)ethoxy]ethyl}urea) hexahydrochloride]: the inhibition in vivo at 3 mg/kg in the assay with SD rat is -1%. Besides, the IC50 on human NHE3 amounted to 8.6 nM.

`CN1Cc2c(Cl)cc(Cl)cc2[C@H](c2cccc(-c3cn(CCOCCOCCOCCOCCOCCNC(=O)NCCCCNC(=O)NCCOCCOCCOCCOCCOCCn4cc(-c5cccc([C@@H]6CN(C)Cc7c(Cl)cc(Cl)cc76)c5)nn4)nn3)c2)C1.Cl` [Example 7-39, 1,1′-Butane-1,4-diylbis {3-[17-(4-{3-[(4S)-6,8-dichloro-2-methyl-1,2,3,4-tetrahydroisoquinolin-4-yl]phenyl}-1H-1,2,3-triazol-1-yl)-3,6,9,12,15-pentaoxaheptadec-1-yl]urea}hydrochloride]: the “Rate of inhibition of phosphate absorption” value in the assay with SD rat (oral dose 1 mg/kg) was 38%. Further, the 50% inhibitory concentration (IC50) at human NHE3 is 3.2 nM.

Source of the values: patent US9932331B2, “Phenyl tetrahydroisoquinoline compound substituted with heteroaryl” (TAISHO PHARMACEUTICAL CO., LTD, priority 2014, dated 2018).
